According to patent US12648941B2, “Piperidine urea derivatives for use as inotropic agents” (Helsinn Healthcare SA, priority 2021, dated 2026):
Where two headings read alike, the source gives them in different places.

Assay: Phase 1 single ascending dose study, plasma pharmacokinetics
Assay type: in vivo, human
Settings: for AUClast/D / Cmax/D / AUC∞/D / CL/F / λz / AUC(0-t) / Cmax / AUC(0-inf) / MRT / Vd/F: geometric mean; for AUC(0-t): po; for Vd/F: read-out: Vz/F
Description: Single-center, randomized, double-blind, placebo-controlled, single ascending dose (SAD) study.
Screening examinations were performed within 28 days prior to dosing. Eligible subjects returned to the study center in the morning of Day-1 and remained in-patient until discharge at 72 hours after dosing (morning of Day 4) if there were no safety issues. The oral dose was administered in the morning of Day 1. Subjects returned to the clinic 7 days after treatment, in the morning of Day 8 (±1 day), for the safety assessments.
Healthy male non-smoking subjects, between 18 and 50 years of age inclusive, with a body mass index (BMI) between 18.5 and 29.9 kg/m^2 inclusive. Cohorts of 8 subjects per dose step were planned. Cohort 1 (10 mg or placebo) was stopped after dosing of 4 subjects. Cohorts 2 to 4 consisted of 8 subjects each, i.e., a total number of 28 subjects were randomized and completed the study. There were no withdrawals.
HM01 HCl powder in gelatine capsules. Capsules with the strength of 0.1 mg and 1.0 mg and 10 mg for cohort 1 were available. • Cohort 1:10 mg HM01 • Cohort 2:0.1 mg HM01 Cohort 3:0.3 mg HM01 Cohort 4:1.0 mg HM01
Subjects were dosed in a fasted state (no food for at least 8 hours). Access to food was restricted until 4 hours after dosing. Capsules were administered orally together with 240 mL water.
Blood samples for analytical assay of HM01 and the 3 major metabolites (M2, M6 and M9) were collected at pre-dose (within 60 minutes prior to drug administration), and at 0.25, 0.5, 1, 1.5, 2, 3, 4, 6, 8, 12, 16, 24, 30, 36, 48, 60 and 72 hours post dose (18 samples). Urine was collected for 24 hours after dosing. Blood and urine samples were analyzed for HM01 and its metabolites concentrations using validated LC-MS/MS methods.
PK parameters estimated included Cmax (maximum observed concentration), Cmax/D (Cmax per dose unit), tmax (peak time), Clast (last measurable concentration above the lower limit of quantification), tlast (time of Clast), AUC(0-24) and AUClast (area under the plasma concentration-time curve from time zero to 24 hours and to the last measurable concentration, tlast, respectively), AUClast/D (AUClast per dose unit), AUC∞(area under the plasma concentration-time curve from time zero to infinity), AUC∞(/D (AUC∞ per dose unit), t1/2 (apparent terminal half-life), CL/F (systemic clearance after extravascular administration, only for the parent drug), Vz/F (apparent volume of distribution after extravascular administration, only for the parent drug), MRT (mean residence time).

[1] = 0.1 mg HM01 single oral dose, N = 6
[2] = 0.3 mg HM01 single oral dose, N = 6
[3] = 0.3 mg HM01 single oral dose, n = 5
[4] = 1.0 mg HM01 single oral dose, N = 6
[5] = 10 mg HM01 single oral dose, N = 3
[6] = male, human, plasma, 0.3 mg HM01 single oral dose, n = 5
[7] = male, human, plasma, 1.0 mg HM01 single oral dose, N = 6
[8] = male, human, plasma, 10 mg HM01 single oral dose, N = 3

COc1ccc([C@H](C)NC(=O)N(C)[C@@H]2CCN(C)CC2(C)C)c(Cl)c1Cl.Cl [AC01/HM01, 1-[(1S)-1-(2,3-dichloro-4-methoxyphenyl)ethyl]-3-methyl-3-[(4R)-1-methyl-3,3-dimethyl-4-piperidyl]-urea]
AUClast/D [1]: 4.899 (h * ng/mL)/mg
Cmax/D [1]: 1.357 (ng/mL)/mg
tlast (0.1 mg HM01 single oral dose, N = 6, median): 8.00 h
AUClast/D [2]: 9.396 (h * ng/mL)/mg
Cmax/D [2]: 0.9554 (ng/mL)/mg
tlast (0.3 mg HM01 single oral dose, N = 6, median): 16.00 h
AUC∞/D [3]: 15.19 (h * ng/mL)/mg
CL/F [3]: 65.8 L/h
λz [3]: 0.0821 h⁻¹
AUClast/D [4]: 14.71 (h * ng/mL)/mg
AUC∞/D [4]: 16.94 (h * ng/mL)/mg
CL/F [4]: 59.0 L/h
Cmax/D [4]: 1.280 (ng/mL)/mg
λz [4]: 0.0648 h⁻¹
tlast (1.0 mg HM01 single oral dose, N = 6, median): 36.00 h
AUClast/D [5]: 17.61 (h * ng/mL)/mg
AUC∞/D [5]: 17.88 (h * ng/mL)/mg
CL/F [5]: 55.9 L/h
Cmax/D [5]: 1.528 (ng/mL)/mg
λz [5]: 0.0646 h⁻¹
tlast (10 mg HM01 single oral dose, N = 3, median): 72.00 h
half-life (male, human, plasma, oral, similar for all doses, read-out: arithmetic mean half-life of HM01): 9 to 11 h
clearance (male, human, plasma, oral, similar for all doses, read-out: geometric mean clearance of HM01): 932 to 1100 mL/min
Tmax (male, human, plasma, oral, similar for all doses, read-out: median tmax of HM01): 3 to 4 h
apparent volume of distribution (Vz/F) (male, human, plasma, oral, similar for all doses, read-out: volume of distribution of HM01): 801 to 911 L
AUC(0-t) (male, human, plasma, 0.1 mg, 0.1 mg HM01 single oral dose, fasted healthy males, N = 6, read-out: AUClast): 0.49 ng·h/mL
AUC(0-t) (male, human, plasma, 0.3 mg, 0.3 mg HM01 single oral dose, N = 6, read-out: AUClast): 2.82 ng·h/mL
AUC(0-t) (male, human, plasma, 0.3 mg, 0.3 mg HM01 single oral dose, fasted healthy males, N = 6, read-out: AUC0-24h): 3.75 ng·h/mL
AUC(0-t) (male, human, plasma, 1 mg, 1.0 mg HM01 single oral dose, N = 6, read-out: AUClast): 14.7 ng·h/mL
AUC(0-t) (male, human, plasma, 1 mg, 1.0 mg HM01 single oral dose, fasted healthy males, N = 6, read-out: AUC0-24h): 13.4 ng·h/mL
AUC(0-t) (male, human, plasma, 10 mg, 10 mg HM01 single oral dose, N = 3, read-out: AUClast): 176 ng·h/mL
AUC(0-t) (male, human, plasma, 10 mg, 10 mg HM01 single oral dose, fasted healthy males, N = 3, read-out: AUC0-24h): 149 ng·h/mL
Cmax (male, human, plasma, 0.1 mg HM01 single oral dose, N = 6): 0.136 ng/mL
Tmax (male, human, plasma, 0.1 mg HM01 single oral dose, N = 6, median, read-out: tmax): 3 h
Cmax (male, human, plasma, 0.3 mg HM01 single oral dose, N = 6): 0.287 ng/mL
Tmax (male, human, plasma, 0.3 mg HM01 single oral dose, N = 6, median, read-out: tmax): 4 h
half-life (male, human, plasma, 0.3 mg HM01 single oral dose, n = 5, arithmetic mean, read-out: t1/2 (converted)): 8.83 h
AUC(0-inf) [6]: 4.56 ng·h/mL
MRT [6]: 14.4 h
Vd/F [6]: 801 L
half-life (male, human, plasma, 1.0 mg HM01 single oral dose, N = 6, arithmetic mean, read-out: t1/2 (converted)): 11 h
AUC(0-inf) [7]: 16.9 ng·h/mL
Cmax [7]: 1.28 ng/mL
MRT [7]: 15.3 h
Vd/F [7]: 911 L
Tmax (male, human, plasma, 1.0 mg HM01 single oral dose, N = 6, median, read-out: tmax): 4 h
half-life (male, human, plasma, 10 mg HM01 single oral dose, N = 3, arithmetic mean, read-out: t1/2 (converted)): 10.9 h
AUC(0-inf) [8]: 179 ng·h/mL
Cmax [8]: 15.3 ng/mL
MRT [8]: 14.2 h
Vd/F [8]: 866 L
Tmax (male, human, plasma, 10 mg HM01 single oral dose, N = 3, median, read-out: tmax): 3 h
dose dependence of AUC∞ (single oral doses of HM01): dose proportional increase
dose dependence of max (single oral doses of HM01): dose proportional increase
